Measurements from the supplement of paper PMC11451515.

Experiments:
Details in all cases: 48 h
SEM cells [1] = assay: cell viability relative to DMSO control; higher = less cytotoxic
Summary of the method: (§1)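 Leukemia cells (NOMO1 or SEM, 500 cells/well; P12-Ichikawa, 1000 cells/well) were seeded in 5 μl in 1536-well plates after at least four passages of adaptation to each medium. They received library compounds in DMSO by pin dosing, 11 threefold points from 47 μM to 0.79 nM. Luminescence with CellTiter-Glo One was read after 48 h at 37°C. Viability is stated per plate relative to DMSO wells, with cell-free wells as background.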

P12-Ichikawa [2] = assay: AUC of viability dose-response curve (% viability x log10 dose units); higher = less sensitive
Summary of the method: (§2)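 Library compounds in DMSO were applied for 48 h at 37°C at 11 threefold doses (47 μM to 0.79 nM) to medium-adapted leukemia cells in 1536-well plates holding 500 or 1000 cells/well. Luminescence from CellTiter-Glo One was normalised plate by plate against DMSO and cell-free wells. Area under the curve came from trapezoidal integration of a log-logistic fit, after scaling curves that rose above full viability and discarding those that failed quality control. The fit had four parameters and used log10 doses.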

SEM cells [3] = assay: as above
Summary of the method: as §2

NOMO1 [4] = assay: as above
Summary of the method: as §2

P12-Ichikawa [5] = assay: cell viability relative to DMSO control; higher = less cytotoxic
Summary of the method: as §1

NOMO1 [6] = assay: as above
Summary of the method: as §1

CC[C@@]1(O)C(=O)OC\C2=C1\C=C3/N(CC4=CC5=C(C=CC(=C5CN(C)C)O)N=C34)C2=O
SEM cells [1], RPMI 5 mM glucose + 10% FBS
Details | cell viability [%]
0.000781 µM | 101
0.00234 µM | 107
0.00702 µM | 87.2
0.0211 µM | 107
0.0632 µM | 68.6
0.19 µM | 22.4
0.569 µM | 11.5
1.71 µM | 12.2
5.12 µM | 6.44
15.4 µM | 4.3
46.1 µM | 4.41

AUC of viability dose-response curve
Details | NOMO1 [4] | P12-Ichikawa [2] | SEM cells [3]
HPLM + 10% dialyzed FBS | 306 | 225 | 245
RPMI 5 mM glucose + 10% FBS | 312 | 217 | 226
RPMI 5 mM glucose + 10% dialyzed FBS | 324 | 215 | 230

C\C1=C(\C=C(\C#N)C(=O)N1)C2=CC=NC=C2
cell viability [%]
Details | NOMO1 [6] | P12-Ichikawa [5] | SEM cells [1]
HPLM + 10% dialyzed FBS, 0.000781 µM | 98.3 | 104 | 82.7
HPLM + 10% dialyzed FBS, 0.00234 µM | 114 | 104 | 86.9
HPLM + 10% dialyzed FBS, 0.00702 µM | 117 | 102 | 91.6
HPLM + 10% dialyzed FBS, 0.0211 µM | 116 | 102 | 104
HPLM + 10% dialyzed FBS, 0.0632 µM | 133 | 105 | 101
HPLM + 10% dialyzed FBS, 0.19 µM | 118 | 106 | 113
HPLM + 10% dialyzed FBS, 0.569 µM | 123 | 107 | 99.3
HPLM + 10% dialyzed FBS, 1.71 µM | 131 | 115 | 111
HPLM + 10% dialyzed FBS, 5.12 µM | 114 | 109 | 96.7
HPLM + 10% dialyzed FBS, 15.4 µM | 103 | 109 | 126
HPLM + 10% dialyzed FBS, 46.1 µM | 108 | 13.8 | 113
RPMI 5 mM glucose + 10% FBS, 0.000781 µM | 94.7 | 110 | 109
RPMI 5 mM glucose + 10% FBS, 0.00234 µM | 108 | 114 | 92.5
RPMI 5 mM glucose + 10% FBS, 0.00702 µM | 110 | 112 | 113
RPMI 5 mM glucose + 10% FBS, 0.0211 µM | 104 | 118 | 109
RPMI 5 mM glucose + 10% FBS, 0.0632 µM | 109 | 118 | 121
RPMI 5 mM glucose + 10% FBS, 0.19 µM | 111 | 107 | 112
RPMI 5 mM glucose + 10% FBS, 0.569 µM | 106 | 112 | 108
RPMI 5 mM glucose + 10% FBS, 1.71 µM | 127 | 118 | 112
RPMI 5 mM glucose + 10% FBS, 5.12 µM | 103 | 112 | 84.9
RPMI 5 mM glucose + 10% FBS, 15.4 µM | 97.5 | 121 | 122
RPMI 5 mM glucose + 10% FBS, 46.1 µM | 71.5 | 18.4 | 97.8
RPMI 5 mM glucose + 10% dialyzed FBS, 0.000781 µM | 112 | 94.6 | 115
RPMI 5 mM glucose + 10% dialyzed FBS, 0.00234 µM | 108 | 105 | 101
RPMI 5 mM glucose + 10% dialyzed FBS, 0.00702 µM | 119 | 103 | 111
RPMI 5 mM glucose + 10% dialyzed FBS, 0.0211 µM | 118 | 98.9 | 130
RPMI 5 mM glucose + 10% dialyzed FBS, 0.0632 µM | 115 | 110 | 118
RPMI 5 mM glucose + 10% dialyzed FBS, 0.19 µM | 114 | 107 | 117
RPMI 5 mM glucose + 10% dialyzed FBS, 0.569 µM | 120 | 109 | 96.4
RPMI 5 mM glucose + 10% dialyzed FBS, 1.71 µM | 115 | 110 | 109
RPMI 5 mM glucose + 10% dialyzed FBS, 5.12 µM | 114 | 111 | 105
RPMI 5 mM glucose + 10% dialyzed FBS, 15.4 µM | 110 | 108 | 109
RPMI 5 mM glucose + 10% dialyzed FBS, 46.1 µM | 81.2 | 27.9 | 114

AUC of viability dose-response curve
Details | HPLM + 10% dialyzed FBS | RPMI 5 mM glucose + 10% FBS | RPMI 5 mM glucose + 10% dialyzed FBS
NOMO1 [4] | 474 | 464 | 468
SEM cells [3] | 418 | 471 | 460

CC(C)(C(=O)NCC(F)(F)C(F)(F)F)C(=O)N[C@@H]1C(=O)Nc2ccccc2-c2ccccc21
cell viability [%], SEM cells [1]
Details | HPLM + 10% dialyzed FBS | RPMI 5 mM glucose + 10% FBS
0.000781 µM | 99.6 | 96.8
0.00234 µM | 113 | 127
0.00702 µM | 120 | 120
0.0211 µM | 128 | 133
0.0632 µM | 127 | 122
0.19 µM | 119 | 128
0.569 µM | 119 | 130
1.71 µM | 123 | 108
5.12 µM | 126 | 124
15.4 µM | 129 | 72.7
46.1 µM | 3.02 | 3.52

AUC of viability dose-response curve
Details | HPLM + 10% dialyzed FBS | RPMI 5 mM glucose + 10% FBS | RPMI 5 mM glucose + 10% dialyzed FBS
NOMO1 [4] | 366 | 337 | 363
SEM cells [3] | 452 | 435 | 452

CO[C@H]1/C=C\C=C(\C)C(=O)NC2=CC(=O)C(NCCN(C)C)=C(C[C@@H](C)C[C@H](OC)[C@H](O)[C@@H](C)/C=C(/C)[C@@H]1OC(N)=O)C2=O
SEM cells [1], HPLM + 10% dialyzed FBS
Details | cell viability [%]
0.000781 µM | 108
0.00234 µM | 124
0.00702 µM | 118
0.0211 µM | 120
0.0632 µM | 122
0.19 µM | 60.8
0.569 µM | 31.6
1.71 µM | 25.3
5.12 µM | 25.5
15.4 µM | 23
46.1 µM | 6.44

AUC of viability dose-response curve
Details | NOMO1 [4] | P12-Ichikawa [2] | SEM cells [3]
HPLM + 10% dialyzed FBS | 305 | 362 | 279
RPMI 5 mM glucose + 10% FBS | 308 | 328 | 274
RPMI 5 mM glucose + 10% dialyzed FBS | 309 | 333 | 268

CCC(=O)NCC[C@@H]1CCc2ccc3c(c21)CCO3
AUC of viability dose-response curve
Details | NOMO1 [4] | P12-Ichikawa [2] | SEM cells [3]
HPLM + 10% dialyzed FBS | 444 | 444 | 430
RPMI 5 mM glucose + 10% FBS | 446 | 455 | 431
RPMI 5 mM glucose + 10% dialyzed FBS | 449 | 459 | 435

CCCCCC[C@H]1C(=O)O[C@H](C)[C@H](NC(=O)c2cccc(NC=O)c2O)C(=O)O[C@@H](C)[C@@H]1OC(=O)CC(C)C
SEM cells [1], HPLM + 10% dialyzed FBS
Details | cell viability [%]
0.000781 µM | 90.7
0.00234 µM | 130
0.00702 µM | 111
0.0211 µM | 113
0.0632 µM | 115
0.19 µM | 123
0.569 µM | 137
1.71 µM | 111
5.12 µM | 110
15.4 µM | 112
46.1 µM | 101

AUC of viability dose-response curve
Details | NOMO1 [4] | P12-Ichikawa [2] | SEM cells [3]
HPLM + 10% dialyzed FBS | 444 | 417 | 476
RPMI 5 mM glucose + 10% FBS | 438 | 403 | 403
RPMI 5 mM glucose + 10% dialyzed FBS | 442 | 403 | 416

OC(Cn1cncn1)(Cn1cncn1)c1ccc(F)cc1F
AUC of viability dose-response curve
Details | NOMO1 [4] | P12-Ichikawa [2] | SEM cells [3]
HPLM + 10% dialyzed FBS | 431 | 448 | 463
RPMI 5 mM glucose + 10% FBS | 449 | 448 | 451
RPMI 5 mM glucose + 10% dialyzed FBS | 449 | 462 | 467

C[C@@H]1CC[C@H]2[C@@H](C)C(=O)O[C@@H]3O[C@@]4(C)CC[C@@H]1[C@]32OO4
cell viability [%], SEM cells [1]
Details | RPMI 5 mM glucose + 10% FBS | RPMI 5 mM glucose + 10% dialyzed FBS
0.000781 µM | 115 | 132
0.00234 µM | 144 | 113
0.00702 µM | 118 | 120
0.0211 µM | 134 | 118
0.0632 µM | 109 | 110
0.19 µM | 108 | 100
0.569 µM | 115 | 97.6
1.71 µM | 87.6 | 77.3
5.12 µM | 91.7 | 72.2
15.4 µM | 116 | 112
46.1 µM | 114 | 126

AUC of viability dose-response curve
Details | NOMO1 [4] | P12-Ichikawa [2] | SEM cells [3]
HPLM + 10% dialyzed FBS | 435 | 440 | 436
RPMI 5 mM glucose + 10% FBS | 419 | 412 | 424
RPMI 5 mM glucose + 10% dialyzed FBS | 451 | 416 | 418
